Test results published in US20250177334A1, “Pharmaceutical Compositions Comprising Phenylsulfonamides, and Their Therapeutic Applications” (Cura Therapeutics, LLC, priority 2018, published 2025).
“And” between values parts separate entries of the source, which are not always exact repeats. Equal values may be shown once. Read-outs that look alike come from different tables or passages of the source.

Experiments:
[1] = Metabolic stability in fresh human plasma (LC/MS/MS peak heights); assay type: in vitro ADME; conditions: for % Remaining: plasma; for Peak Height: duplicate aliquots
Procedure: Compounds A1-A3 were independently spiked directly into an individual lot of fresh human plasma, with sodium heparin as the anticoagulant, such that the final assay concentration of each compound was 1.00 μM. After incubation at room temperature for 0, 0.5, 1, 2, and 4 hours, samples were removed and aliquoted for analysis. Valacyclovir was used as a positive control. The plasma samples containing a test compound were processed by protein precipitation.
A primary 1.00 mM stock solution of a test compound was prepared in either acetonitrile or acetonitrile:water (1:1, v/v). A 0.200 mM working stock was made from the primary stock in acetonitrile water (1:1, v/v), which was used in the human plasma stabiltity study. The primary and working stock solutions were stored at −20° C. when not in use. When it was used in the assay, the working stock was kept at room temperature for as short a time as possible.
The human plasma stabiltity study was initiated by adding 5.00 μL of a test compound stock solution to 0.995 mL of human plasma (sodium heparin) in a 1.7-mL snap tube. Time zero points were generated by immediately removing duplicate 50.0 μL aliquots of plasma after initiating each incubation and quenching in 150 μL of methanol. The plasma incubation tubes were capped and remained at room temperature between time points.
After 0.5, 1, 2, and 4 hours of incubation, duplicate 50.0 μL aliquots of plasma were removed and placed into the extraction tubes containing 150 μL of methanol. Each time point was immediately extracted by vortex mixing, centrifuged, and the supernate removed to HPLC vial for analysis. After extraction of all samples, the extracts were analyzed by LC/MS/MS.
LC/MS/MS analysis of the incubation solutions was conducted by initial separation of a test compound peak using chromatography prior to detection by a mass spectrometer. The LC/MS system was comprised of a HPLC coupled with a TQS-Micro or Quattro Premier. The mobile phase was nebulized using heated nitrogen in a Z-spray source/interface set to electrospray in either positive ionization mode or negative ionization mode. The ionized compounds were detected using MS/MS. The data was acquired using MassLynx.
The peak heights for compounds A1-A3 are presented in Table 1, whereas the peak heights for the positive control are shown in Table 2.

[2] = Compound A2 concentration in the CSF of rats; assay type: in vivo
Procedure: Compound A2 in the CSF of the rats was also analyzed. The results are shown in Table 4 below, wherein BQL stands for below the quantifiable limit of 2.0 ng/mL.

[3] = Pharmacokinetic study of compound A2 in rats; assay type: in vivo
Procedure: A pharmacokinetic study on compound A2 was carried out in rats.

[4] = fresh human plasma, 1.00 μM, room temperature, 0 h
[5] = fresh human plasma, 1.00 μM, room temperature, 0.5 h
[6] = fresh human plasma, 1.00 μM, room temperature, 4 h

COc1cc(NS(=O)(=O)c2cccc(C(=O)O)c2)cc(OC)c1 [Compound A3, 3-(N-(3,5-dimethoxyphenyl)sulfamoyl)benzoic acid]
Mean Height ([1]; human, 0 h, 1 μM): 4,210
Mean Height ([1]; human, 0.5 h, 1 μM): 4,100
Mean Height ([1]; human, 1 h, 1 μM): 3,660
Mean Height ([1]; human, 2 h, 1 μM): 3,440
Mean Height ([1]; human, 4 h, 1 μM): 3,850
% Remaining ([1]; human, 0 h, 1 μM): 100%
% Remaining ([1]; human, 0.5 h, 1 μM): 97%
% Remaining ([1]; human, 1 h, 1 μM): 87%
% Remaining ([1]; human, 2 h, 1 μM): 82%
% Remaining ([1]; human, 4 h, 1 μM): 91%

CC(C)[C@H](N)C(=O)OCCOCn1cnc2c(=O)[nH]c(N)nc21 [Valacyclovir, reference compound]
Mean Height [1, 4]: 21,400
Peak Height [1, 4]: 21,201 and 21,603
Mean Height [1, 5]: 20,700
Peak Height [1, 5]: 21,055 and 20,329
Mean Height ([1]; fresh human plasma, 1.00 μM, room temperature, 1 h): 20,500
Peak Height ([1]; fresh human plasma, 1.00 μM, room temperature, 2 h): 19,941 and 19,624
Mean Height [1, 6]: 17,700
Peak Height [1, 6]: 17,697 and 17,785
Mean Height ([1]; human, 2 h, 1 μM): 19,800
% Remaining ([1]; human, 0 h, 1 μM): 100%
% Remaining ([1]; human, 0.5 h, 1 μM): 96.7%
% Remaining ([1]; human, 1 h, 1 μM): 95.8%
% Remaining ([1]; human, 2 h, 1 μM): 92.5%
% Remaining ([1]; human, 4 h, 1 μM): 82.7%

Cc1ccc(C(F)(F)F)cc1NS(=O)(=O)c1cccc(C(=O)O)c1 [Compound A2, 3-(N-(2-methyl-5-(trifluoromethyl)phenyl)sulfamoyl)benzoic acid]
CSF Concentration ([2]; IV, 0.00 h, individual animals): BQL (BQL stands for below the quantifiable limit of 2.0 ng/mL)
CSF Concentration ([2]; IV, 0.5 h, individual animals): 65 ng/mL and 0.95 ng/mL and BQL (BQL stands for below the quantifiable limit of 2.0 ng/mL)
CSF Concentration ([2]; IV, 1.0 h, individual animals): 4.2 ng/mL and 17 ng/mL
CSF Concentration ([2]; IV, 2.0 h, individual animals): BQL (BQL stands for below the quantifiable limit of 2.0 ng/mL)
CSF Concentration ([2]; IV, 8.0 h, individual animals): BQL (BQL stands for below the quantifiable limit of 2.0 ng/mL)
CSF Concentration ([2]; IV, 12 h, individual animals): BQL (BQL stands for below the quantifiable limit of 2.0 ng/mL)
CSF Concentration ([2]; IV, 24 h, individual animals): BQL (BQL stands for below the quantifiable limit of 2.0 ng/mL)
CSF Concentration ([2]; PO, 0.00 h, individual animals): BQL (BQL stands for below the quantifiable limit of 2.0 ng/mL)
CSF Concentration ([2]; PO, 0.5 h, individual animals): 4.3 ng/mL and BQL (BQL stands for below the quantifiable limit of 2.0 ng/mL)
CSF Concentration ([2]; PO, 1.0 h, individual animals): 5.3 ng/mL and 32 ng/mL and 6.7 ng/mL
CSF Concentration ([2]; PO, 2.0 h, individual animals): 2.8 ng/mL and 3.1 ng/mL
CSF Concentration ([2]; PO, 4.0 h, individual animals): 139 ng/mL and 56 ng/mL
CSF Concentration ([2]; PO, 8.0 h, individual animals): BQL (BQL stands for below the quantifiable limit of 2.0 ng/mL) and 1.6 ng/mL and 20 ng/mL
CSF Concentration ([2]; PO, 12 h, individual animals): 1.5 ng/mL and 11 ng/mL
CSF Concentration ([2]; PO, 24 h, individual animals): BQL (BQL stands for below the quantifiable limit of 2.0 ng/mL)
concentration at 1 h ([2]; rat, CSF, iv, 1 mg/kg, 1.0 h, mean): 11 ng/mL
concentration at 0.5 h ([2]; rat, CSF, iv, 1 mg/kg, IV, 0.5 h, mean, read-out: CSF Concentration, Mean): 33 ng/mL
concentration at 2 h ([2]; rat, CSF, iv, 1 mg/kg, IV, 2.0 h, individual animals, read-out: CSF Concentration): 4.9 ng/mL
concentration at 2 h ([2]; rat, CSF, iv, 1 mg/kg, IV, 2.0 h, mean, read-out: CSF Concentration, Mean): 4.9 ng/mL
concentration at 4 h ([2]; rat, CSF, iv, 1 mg/kg, IV, 4.0 h, individual animals, read-out: CSF Concentration): 15 ng/mL
concentration at 4 h ([2]; rat, CSF, iv, 1 mg/kg, IV, 4.0 h, mean, read-out: CSF Concentration, Mean): 15 ng/mL
concentration at 8 h ([2]; rat, CSF, iv, 1 mg/kg, IV, 8.0 h, individual animals, read-out: CSF Concentration): 1.4 ng/mL
concentration at 8 h ([2]; rat, CSF, iv, 1 mg/kg, IV, 8.0 h, mean, read-out: CSF Concentration, Mean): 1.4 ng/mL
concentration at 1 h ([2]; rat, CSF, po, 10 mg/kg, 1.0 h, mean): 15 ng/mL
concentration at 12 h ([2]; rat, CSF, po, 10 mg/kg, 12 h, mean): 6.5 ng/mL
concentration at 0.5 h ([2]; rat, CSF, po, 10 mg/kg, PO, 0.5 h, individual animals, read-out: CSF Concentration): 2.7 ng/mL
concentration at 0.5 h ([2]; rat, CSF, po, 10 mg/kg, PO, 0.5 h, mean, read-out: CSF Concentration, Mean): 3.5 ng/mL
concentration at 2 h ([2]; rat, CSF, po, 10 mg/kg, PO, 2.0 h, individual animals, read-out: CSF Concentration): 3.6 ng/mL
concentration at 2 h ([2]; rat, CSF, po, 10 mg/kg, PO, 2.0 h, mean, read-out: CSF Concentration, Mean): 3.2 ng/mL
concentration at 4 h ([2]; rat, CSF, po, 10 mg/kg, PO, 4.0 h, mean, read-out: CSF Concentration, Mean): 97.4 ng/mL
concentration at 8 h ([2]; rat, CSF, po, 10 mg/kg, PO, 8.0 h, mean, read-out: CSF Concentration, Mean): 11 ng/mL
concentration at 24 h ([2]; rat, CSF, po, 10 mg/kg, PO, 24 h, individual animals, read-out: CSF Concentration): 2 ng/mL
concentration at 24 h ([2]; rat, CSF, po, 10 mg/kg, PO, 24 h, mean, read-out: CSF Concentration, Mean): 2 ng/mL
AUCINF/Dose ([3]; IV): 13800
CL or CL/F ([3]; IV): 1.2 mL/min/kg
HL ([3]; IV): 5 h
AUCINF/Dose ([3]; PO): 6420
HL ([3]; PO): 7 h
AUC(0-inf) ([3]; rat, in vivo, 1 mg/kg, IV): 13800 ng·h/mL
AUC(0-t) ([3]; rat, in vivo, 1 mg/kg, IV): 13400 ng·h/mL
Cmax ([3]; rat, in vivo, 1 mg/kg, IV): 4310 ng/mL
AUC(0-inf) ([3]; rat, in vivo, 10 mg/kg, PO): 64200 ng·h/mL
AUC(0-t) ([3]; rat, in vivo, 10 mg/kg, PO): 56200 ng·h/mL
Cmax ([3]; rat, in vivo, 10 mg/kg, PO): 4590 ng/mL
Tmax ([3]; rat, in vivo, 10 mg/kg, PO): 4 h
bioavailability ([3]; rat, in vivo, 10 mg/kg, PO): 45%
CL/F ([3]; rat, in vivo, 10 mg/kg, PO, read-out: CL or CL/F): 2.6 mL/min/kg
Mean Height ([1]; human, 0 h, 1 μM): 12,600
Mean Height ([1]; human, 0.5 h, 1 μM): 13,300
Mean Height ([1]; human, 1 h, 1 μM): 13,000
Mean Height ([1]; human, 2 h, 1 μM): 13,000
Mean Height ([1]; human, 4 h, 1 μM): 13,100
% Remaining ([1]; human, 0 h, 1 μM): 100%
% Remaining ([1]; human, 0.5 h, 1 μM): 106%
% Remaining ([1]; human, 1 h, 1 μM): 103%
% Remaining ([1]; human, 2 h, 1 μM): 103%
% Remaining ([1]; human, 4 h, 1 μM): 104%

CS(=O)(=O)Nc1cccc(NS(=O)(=O)c2ccc(C(=O)O)cc2)c1 [Compound A1, 4-(N-(3-(methylsulfonamido)phenyl)sulfamoyl)benzoic acid]
Mean Height ([1]; human, 0 h, 1 μM): 4,250
Mean Height ([1]; human, 0.5 h, 1 μM): 3,740
Mean Height ([1]; human, 1 h, 1 μM): 3,680
Mean Height ([1]; human, 2 h, 1 μM): 3,510
Mean Height ([1]; human, 4 h, 1 μM): 3,670
% Remaining ([1]; human, 0 h, 1 μM): 100%
% Remaining ([1]; human, 0.5 h, 1 μM): 88%
% Remaining ([1]; human, 1 h, 1 μM): 87%
% Remaining ([1]; human, 2 h, 1 μM): 83%
% Remaining ([1]; human, 4 h, 1 μM): 86%
